Measurements: patent US9751861B2, “N1-(3,3,3-trifluoro-2-hydroxo-2-methylpropionyl)-piperidine derivatives as inhibitors of pyruvate dehydrogenase kinase” (MERCK PATENT GMBH, priority 2013, dated 2017)

Biological target: T1, PDHK2 (Homo sapiens, UniProt Q15119)
T1 construct: purchased Carna Bioscience
Assay: Biochemical activity testing of PDHK2: PDC inactivation assay
Conditions: human rec PDHK2, PDC from porcine heart, ATP 5 μM; read-out: IC50 PDHK2 (enzyme assay)
Text: Biochemical Activity Testing of PDHK2: PDC Inactivation Assay
The biochemical activity assay for PDHK2 is based on the inactivation of PDC through phosphorylation by PDHK2. The assay is run in two steps: the enzymatic PDHK2 reaction in which isolated PDC is phosphorylated by PDHK2 with ATP as co-substrate and the PDC activity assay in which pyruvate and NAD are converted to acetyl-CoA and NADH. The PDC activity correlates to the increase in NADH and thereby is detectable directly via the increasing fluorescence signal (Exc 340 nm, Em 450 nm). Inhibition of PDHK2 results in a lower phosphorylation status and thereby a less decrease in activity of PDC and a stronger increase in NADH fluorescence signal.
The PDC inactivation assay is performed in Greiner 384-well microtiter plates and is used for high throughput screen. 4 μl of PDHK2 (human, rec, Carna Bioscience, 10 ng/μl-137 nM final concentration) and PDC (isolated from porcine heart, Sigma-Aldrich, 20 mU/ml final concentration) are incubated in the absence or presence of the test compound (10 dilution concentrations) for 30 min at room temperature in kinase buffer (15 mM potassium phosphate buffer, pH 7.0, 60 mM KCl, 1.5 mM DTT, 2.5 mM MgCl2, 0.0125% (w/v) BSA, 0.125% Pluronic F-68). The kinase reaction is started by the addition of 4 μl ATP substrate solution (fc 5 μM in kinase buffer). After 30 min incubation at 37° C. 40 μl of PDC reaction solution (100 mM Tris/HCl, pH 7.8, 0.5 mM EDTA, 1 mM MgCl2, 50 mM NaF, 0.25 mM Coenzyme A, 5 mM pyruvate, 1 mM NAD, 5 mM DTT, […] thiamine pyrophosphate) is added. The first fluorescence measurement is performed on a Perkin Elmer Envision (Exc 340 nm, Em 450 nm). The reaction is incubated for 45 min at room temperature. Afterwards a second fluorescence measurement is performed and the PDC activity is calculated by the difference between both measurements. As full value for the PDHK2 assay the inhibitor-free PDHK2 reaction is used. The pharmacological zero value used is DCA (Sigma-Aldrich) in a final concentration of 3 mM. The inhibitory values (IC50) were determined using either the program Symyx Assay Explorer® or Condosseo® from GeneData.

SMILES	IC50 [µM]
C[C@@](O)(C(=O)N1CCC(c2nncn2-c2ccc(Cl)cc2)CC1)C(F)(F)F [Compound A73, (R)-1-{4-[4-(4-Chloro-phenyl)-4H-[1,2,4]triazol-3-yl]-piperidin-1-yl}-3,3,3-trifluoro-2-hydroxy-2-methyl-propan-1-one]	0.3 to 3
C[C@@](O)(C(=O)N1CCC(c2ccn(-c3ncc(F)cc3F)n2)CC1)C(F)(F)F [Compound A109, (R)-1-{4-[1-(3,5-Difluoro-pyridin-2-yl)-1H-pyrazol-3-yl]-piperidin-1-yl}-3,3,3-trifluoro-2-hydroxy-2-methyl-propan-1-one]	0.3 to 3
C[C@@](O)(C(=O)N1CCC(c2ccn[nH]2)CC1)C(F)(F)F [Compound A104, (R)-3,3,3-Trifluoro-2-hydroxy-2-methyl-1-[4-(2H-pyrazol-3-yl)-piperidin-1-yl]-propan-1-one]	3 to 50
CC(C)Cn1nccc1C1CCN(C(=O)[C@@](C)(O)C(F)(F)F)CC1 [Compound A76, (R)-3,3,3-Trifluoro-2-hydroxy-1-[4-(2-isobutyl-1H-pyrazol-3-yl)-1-piperidyl]-2-methyl-propan-1-one]	3 to 50
Cc1cc(C2CCN(C(=O)[C@@](C)(O)C(F)(F)F)CC2)nn1-c1ccc(F)cc1 [Compound A40, (R)-1-{4-[1-(4-Fluoro-phenyl)-5-methyl-1H-pyrazol-3-yl]-piperidin-1-yl}-3,3,3-trifluoro-2-hydroxy-2-methyl-propan-1-one]	0.3 to 3
C[C@@](O)(C(=O)N1CCC(c2ccnn2-c2ccc(C#N)nc2)CC1)C(F)(F)F [Compound A81, 5-{5-[1-((R)-3,3,3-Trifluoro-2-hydroxy-2-methyl-propionyl)-piperidin-4-yl]-pyrazol-1-yl}-pyridine-2-carbonitrile]	0.3 to 3
Cn1ccc(C2CCN(C(=O)[C@@](C)(O)C(F)(F)F)CC2)n1 [Compound A99, (R)-3,3,3-Trifluoro-2-hydroxy-2-methyl-1-[4-(1-methyl-1H-pyrazol-3-yl)piperidin-1-yl]-propan-1-one]	3 to 50
Cc1ccc(-n2nncc2C2CCN(C(=O)[C@@](C)(O)C(F)(F)F)CC2)cc1 [Compound A59, (R)-3,3,3-Trifluoro-2-hydroxy-2-methyl-1-[4-(3-p-tolyl-3 H-[1,2,3]triazol-4-yl)piperidin-1-yl]-propan-1-one]	0.3 to 3
C[C@@](O)(C(=O)N1CCC(c2ccnn2C2CCCC2)CC1)C(F)(F)F [Compound A51, (R)-1-[4-(2-Cyclopentyl-2H-pyrazol-3-yl)-piperidin-1-yl]-3,3,3-trifluoro-2-hydroxy-2-methyl-propan-1-one]	0.3 to 3
Cc1cc(C2CCN(C(=O)[C@@](C)(O)C(F)(F)F)CC2)nn1-c1ccccc1 [Compound A47, (R)-1-[4-(5-Methyl-1-phenyl-1H-pyrazol-3-yl)-piperidin-1-yl]-3,3,3-trifluoro-2-hydroxy-2-methyl-propan-1-one]	3 to 50
C[C@@](O)(C(=O)N1CCC(c2ccnn2-c2ccc(C(F)(F)F)cn2)CC1)C(F)(F)F [Compound A84, (R)-3,3,3-Trifluoro-2-hydroxy-2-methyl-1-{4-[2-(5-trifluoromethyl-pyridin-2-yl)-2H-pyrazol-3-yl]-piperidin-1-yl}-propan-1-one]	0.3 to 3
CN1CCC(n2nccc2C2CCN(C(=O)[C@@](C)(O)C(F)(F)F)CC2)CC1 [Compound A75, (R)-3,3,3-Trifluoro-2-hydroxy-2-methyl-1-{4-[2-(1-methyl-piperidin-4-yl)-2H-pyrazol-3-yl]-piperidin-1-yl}-propan-1-one]	3 to 50
CC(C)Cn1ccc(C2CCN(C(=O)[C@@](C)(O)C(F)(F)F)CC2)n1 [Compound A114, (R)-3,3,3-Trifluoro-2-hydroxy-1-[4-(1-isobutyl-1H-pyrazol-3-yl)-piperidin-1-yl]-2-methyl-propan-1-one]	0.3 to 3
C[C@@](O)(C(=O)N1CCC(c2nccn2-c2ccc(Cl)cc2)CC1)C(F)(F)F [Compound A69, (R)-1-{4-[1-(4-Chloro-phenyl)-1H-imidazol-2-yl]-piperidin-1-yl}-3,3,3-trifluoro-2-hydroxy-2-methyl-propan-1-one]	0.3 to 3
